This note sets out measurements from patent US20170275270A1, “BENZYL SUBSTITUTED INDAZOLES” (Bayer Pharma Aktiengesellschaft, priority 2014, published 2017).

Each structure is given as a SMILES string. pIC50: −log10 of the molar value. Like-named read-outs stand apart in the source and are kept apart here.

For experiment [1], the target named is Bub1 (Homo sapiens, UniProt O43683). Kind of experiment: Formation-Assay: phosphorylation status of histone 2A by inhibition of kinase activity of Bub1. It is filed as cell-based. Particulars: Biological Assay 4.1: H2A Formation IC50, co-treatment with Nocodazole 1 μg/ml, 16 h. How it is done: Biological Assay 4.1: Formation-Assay
Cell-Based Mechanistic Assay: Changes of Phosphorylation Status of Histone 2A by Inhibition of Kinase Activity of Bub1
This assay determines the suppression of histone 2A phosphorylation by a Bub1 kinase inhibitor during co-treatment with Nocodazole. 25000 cells (cells were ordered from ATCC) were seeded in 96 well plate for 5 h at 37° C. Cells were treated with Nocodazole (1 μg/ml) and varying concentrations (between 3 nM and 10 μM) of test compounds for 16 h. Cells were fixed (20 min, Fixing solution R&D), washed three times with PBS and blocked with Odyssey blocking buffer before incubating with the primary antibody against phosphorylated H2A (5 μg/ml ABIN482721) overnight at 2-8° C. After washing, secondary IRDye-labeled antibody mix with cell stains was added for 1 h and washed again with PBS. Plates were scanned with LiCor Odyssey Infrared Imager CLx at 800 nm for P-H2A and at 700 nm for cell stains Draq5/Sapphire. The quotient of 800 nm and 700 nm for Nocodazole only treated cells was set as 100% and the quotient of 800 nm and 700 nm of untreated cells was set as 0%.
Histone H2A is an immediate intracellular substrate of Bub1 kinase. Determination of the phosphorylation status of Histone H2A provides a direct measure of the intracellular activity of Bub1 kinase.

Experiment [2] concerns the target T1, catalytic domain of human Bub1 (amino acids 704-1085) (Homo sapiens, UniProt O43683).
T1 construct: catalytic domain of human Bub1 (amino acids 704-1085); His6 (N); made in house; host or cells: Hi5 insect cells
Description: Bub1 kinase assay (TR-FRET). The experiment is classed as biochemical. The method in brief:
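TR-FRET read-out (Eu-anti-mouse IgG/anti-phosphoserine antibody to streptavidin-XL665 on biotinylated peptide) after EDTA stop and 1 h complex formation at 22° C. Kinase reaction ran 60 min at 22° C with 1:3.4 serial dilutions from 2 mM DMSO stocks. IC50 from 4-parameter logistic fit of normalized inhibition.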

Experiment [3] relates to HeLa. Kind of experiment: Proliferation assay (HeLa cell line).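 Note: crystal violet staining of cell number, scaled between a plate stained before dosing (0%) and cells left untreated (100%), compounds tested at 0.001-10 µM, IC50 via 4-parameter fit.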 Particulars: Homo sapiens, 96 h, read-out: Biological Assay 2: Proliferation assay (HeLa cell line) median IC50.
The test system of experiment [4] is HeLa human cervical tumor cells. Kind of experiment: Proliferation assay (HeLa+Paclitaxel).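 Note: compounds at 0.001-10 µM added 4 h after paclitaxel, 92 h exposure, absorbance normalized to zero-point plate (0%) and untreated cells (100%), IC50 from 4-parameter fit.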 Particulars: read-out: Biological Assay 3: HeLa + Paclitaxel IC50, 3 nM paclitaxel, crystal violet.
Setting [5] is: 10 μM ATP, read-out: Biological Assay 1: Bub1 kinase assay median IC50.
The mark [6] stands for this setting: Biological Assay 1: Bub1 kinase assay median IC50, 10 μM ATP.

T1 sequence (O43683 704-1085): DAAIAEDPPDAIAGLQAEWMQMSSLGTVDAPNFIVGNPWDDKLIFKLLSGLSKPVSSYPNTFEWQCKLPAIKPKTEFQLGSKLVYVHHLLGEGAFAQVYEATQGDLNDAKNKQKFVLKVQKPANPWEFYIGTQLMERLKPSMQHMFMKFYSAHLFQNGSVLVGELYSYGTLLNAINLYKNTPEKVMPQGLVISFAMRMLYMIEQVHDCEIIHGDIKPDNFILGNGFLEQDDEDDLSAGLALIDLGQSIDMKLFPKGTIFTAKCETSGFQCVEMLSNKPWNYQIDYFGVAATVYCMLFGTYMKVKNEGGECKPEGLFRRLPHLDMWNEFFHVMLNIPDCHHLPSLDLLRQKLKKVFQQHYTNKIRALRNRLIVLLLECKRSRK
Chain of Bub1 (O43683 whole entry): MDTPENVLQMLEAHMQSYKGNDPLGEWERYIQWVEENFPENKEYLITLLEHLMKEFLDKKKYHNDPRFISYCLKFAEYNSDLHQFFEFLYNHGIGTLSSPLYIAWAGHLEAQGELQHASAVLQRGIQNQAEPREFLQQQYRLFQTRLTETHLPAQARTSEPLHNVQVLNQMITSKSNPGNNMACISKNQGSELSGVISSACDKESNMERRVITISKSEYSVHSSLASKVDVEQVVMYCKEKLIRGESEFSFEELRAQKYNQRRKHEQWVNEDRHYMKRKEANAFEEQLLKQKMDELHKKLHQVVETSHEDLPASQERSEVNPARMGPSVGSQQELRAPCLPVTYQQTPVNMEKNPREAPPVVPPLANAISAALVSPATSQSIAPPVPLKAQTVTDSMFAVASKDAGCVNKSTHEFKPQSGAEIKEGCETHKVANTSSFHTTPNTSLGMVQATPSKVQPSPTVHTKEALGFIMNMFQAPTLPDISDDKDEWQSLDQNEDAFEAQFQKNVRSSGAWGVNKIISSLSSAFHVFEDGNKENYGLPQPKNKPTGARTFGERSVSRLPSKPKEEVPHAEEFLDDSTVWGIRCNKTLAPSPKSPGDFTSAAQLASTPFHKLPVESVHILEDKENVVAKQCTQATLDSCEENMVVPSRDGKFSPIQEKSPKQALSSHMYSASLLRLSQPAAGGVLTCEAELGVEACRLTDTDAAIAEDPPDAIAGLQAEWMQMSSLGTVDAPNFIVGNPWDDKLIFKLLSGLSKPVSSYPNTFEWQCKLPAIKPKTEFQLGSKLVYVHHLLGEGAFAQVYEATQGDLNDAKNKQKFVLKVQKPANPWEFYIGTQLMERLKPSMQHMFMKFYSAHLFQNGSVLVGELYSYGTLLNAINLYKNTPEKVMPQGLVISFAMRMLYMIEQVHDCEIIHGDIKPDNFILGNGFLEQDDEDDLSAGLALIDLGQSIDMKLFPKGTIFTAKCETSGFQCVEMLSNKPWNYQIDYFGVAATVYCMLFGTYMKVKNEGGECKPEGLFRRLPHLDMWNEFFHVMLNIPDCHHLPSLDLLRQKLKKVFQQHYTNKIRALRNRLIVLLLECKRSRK

`CCOc1cc(F)c(Cn2nc(-c3nc(C)cc(Nc4ccncc4C(N)=O)n3)c3ccccc32)c(F)c1` [Example 2-10-2, 4-({2-[1-(4-ethoxy-2,6-difluorobenzyl)-1H-indazol-3-yl]-6-methylpyrimidin-4-yl}amino)pyridine-3-carboxamide]: the pIC50 in experiment [1] is 6.85; in experiment [2] (setting [5]), 8.26.

For `CCOc1cc(F)c(Cn2nc(-c3nc(CN4CCCCC4)cc(Nc4ccncc4)n3)c3ccccc32)c(F)c1` [Example 2-15-7, 2-[1-(4-ethoxy-2,6-difluorobenzyl)-1H-indazol-3-yl]-6-(piperidin-1-ylmethyl)-N-(pyridin-4-yl)pyrimidin-4-amine], the pIC50 was 5.46 in experiment [3], 6.82 in experiment [4] and 8.11 in experiment [2] (setting [5]).

On to `CCOc1cc(F)c(Cn2nc(-c3nc4c(c(Nc5ccncc5C(F)(F)F)n3)CCC4)c3ccccc32)c(F)c1` [Example 2-14-3, 2-[1-(4-ethoxy-2,6-difluorobenzyl)-1H-indazol-3-yl]-N-[3-(trifluoromethyl)pyridin-4-yl]-6,7-dihydro-5H-cyclopenta[d]pyrimidin-4-amine], for which the figures for the pIC50 in experiment [3], in experiment [4] and in experiment [2] (setting [5]) were 5.52, 6.60 and 8.28, respectively.

In the case of `CCOc1cc(F)c(Cn2nc(-c3nc(Nc4ccncn4)cc(C4CCOCC4)n3)c3ccccc32)c(F)c1` [Example 2-12-92, 2-[1-(4-ethoxy-2,6-difluorobenzyl)-1H-indazol-3-yl]-N-(pyrimidin-4-yl)-6-(tetrahydro-2H-pyran-4-yl)pyrimidin-4-amine], the pIC50 was 5.57 in experiment [3], 6.55 in experiment [4] and 7.70 in experiment [2] (setting [6]).

With `COCCOc1cc(F)c(Cn2nc(-c3nc4c(c(Nc5ccncc5Cl)n3)CCC4)c3ccccc32)c(F)c1` [Example 2-12-30, N-(3-chloropyridin-4-yl)-2-{1-[2,6-difluoro-4-(2-methoxyethoxy)benzyl]-1H-indazol-3-yl}-6,7-dihydro-5H-cyclopenta[d]pyrimidin-4-amine], the pIC50 in experiment [3] was 5.07; in experiment [4] it was 6.85; in experiment [2] (setting [6]), 7.22.

Regarding `CCOc1cc(F)c(Cn2nc(-c3nc(Nc4ccncn4)cc(-c4nccs4)n3)c3ccccc32)c(F)c1` [Example 2-12-95, 2-[1-(4-ethoxy-2,6-difluorobenzyl)-1H-indazol-3-yl]-N-(pyrimidin-4-yl)-6-(1,3-thiazol-2-yl)pyrimidin-4-amine], the pIC50 in experiment [3] is less than 5.00; in experiment [4], 5.01; in experiment [2] (setting [6]), 7.59.

With `CCOc1cc(F)c(Cn2nc(-c3nc(CN4CCOCC4)cc(Nc4cc(C)nc(C)n4)n3)c3ccccc32)c(F)c1` [Example 2-12-44, N-(2,6-dimethylpyrimidin-4-yl)-2-[1-(4-ethoxy-2,6-difluorobenzyl)-1H-indazol-3-yl]-6-(morpholin-4-ylmethyl)pyrimidin-4-amine], the pIC50 was 5.02 in experiment [3], 7.05 in experiment [4] and 6.49 in experiment [2] (setting [6]).

Turning to `CCOc1cc(F)c(Cn2nc(-c3nc(Nc4ccncc4OC)cc(C4CCCO4)n3)c3ccccc32)c(F)c1` (racemic) [Example 2-12-88, 2-[1-(4-ethoxy-2,6-difluorobenzyl)-1H-indazol-3-yl]-N-(3-methoxypyridin-4-yl)-6-[(2rac)-tetrahydrofuran-2-yl]pyrimidin-4-amine], the figures for the pIC50 in experiment [3], in experiment [4] and in experiment [2] (setting [6]) were 5.92, 6.70 and 8.24, respectively.

As for `CCOc1cc(F)c(Cn2nc(-c3nc4c(c(Nc5ccncc5C(=O)O)n3)CCC4)c3ccccc32)c(F)c1` [Example 2-14-9, 4-({2-[1-(4-ethoxy-2,6-difluorobenzyl)-1H-indazol-3-yl]-6,7-dihydro-5H-cyclopenta[d]pyrimidin-4-yl}amino)pyridine-3-carboxylic acid], the pIC50 in experiment [3] was less than 5.00; in experiment [4], less than 5.00; in experiment [2] (setting [6]), 7.18.

Regarding `COCCOc1cc(F)c(Cn2nc(-c3nc(CN4CCOCC4)cc(Nc4ccncc4)n3)c3ccccc32)c(F)c1` [Example 2-12-43, 2-{1-[2,6-difluoro-4-(2-methoxyethoxy)benzyl]-1H-indazol-3-yl}-6-(morpholin-4-ylmethyl)-N-(pyridin-4-yl)pyrimidin-4-amine], the pIC50 is 5.44 in experiment [3], 6.60 in experiment [4] and 8.02 in experiment [2] (setting [6]).

On to `CCOc1cc(F)c(Cn2nc(-c3nc(Nc4ccnc(C)n4)cc(-c4ccn(C)n4)n3)c3ccccc32)c(F)c1` [Example 2-12-93, 2-[1-(4-ethoxy-2,6-difluorobenzyl)-1H-indazol-3-yl]-6-(1-methyl-1H-pyrazol-3-yl)-N-(2-methylpyrimidin-4-yl)pyrimidin-4-amine], for which the pIC50 in experiment [3] was less than 5.00; in experiment [4] it was less than 5.00; in experiment [2] (setting [6]), 7.52.

Consider `CCOc1cc(F)c(Cn2nc(-c3nc(Nc4ccncn4)cc(C4CCCO4)n3)c3ccccc32)c(F)c1` (racemic) [Example 2-12-86, 2-[1-(4-ethoxy-2,6-difluorobenzyl)-1H-indazol-3-yl]-N-(pyrimidin-4-yl)-6-[(2rac)-tetrahydrofuran-2-yl]pyrimidin-4-amine], for which the pIC50 was 5.41 in experiment [3], 5.85 in experiment [4] and 8.12 in experiment [2] (setting [6]).

As to `COc1cnccc1Nc1nc(-c2nn(Cc3c(F)cc(OCCO)cc3F)c3ccccc23)ncc1C1CC1` [Example 2-6-36, 2-{4-[(3-{5-cyclopropyl-4-[(3-methoxypyridin-4-yl)amino]pyrimidin-2-yl}-1H-indazol-1-yl)methyl]-3,5-difluorophenoxy} ethanol], the figures for the pIC50 in experiment [3], in experiment [4] and in experiment [2] (setting [5]) were 5.47, 6.20 and 8.02, respectively.

For `Cc1cc(Nc2ccncc2OC(F)(F)F)nc(-c2nn(Cc3c(F)cc(OCCO)cc3F)c3ccccc23)n1` [Example 2-6-35, 2-(3,5-difluoro-4-{[3-(4-methyl-6-{[3-(trifluoromethoxy)pyridin-4-yl]amino}pyrimidin-2-yl)-1H-indazol-1-yl]methyl}phenoxy)ethanol], the pIC50 in experiment [3] was 5.64; in experiment [4], 5.89; in experiment [2] (setting [5]), 8.27.

`COCCOc1cc(F)c(Cn2nc(-c3nc4c(c(Nc5ccncc5OC)n3)CCC4)c3ccccc32)c(F)c1` [Example 2-12-31, 2-{1-[2,6-difluoro-4-(2-methoxyethoxy)benzyl]-1H-indazol-3-yl}-N-(3-methoxypyridin-4-yl)-6,7-dihydro-5H-cyclopenta[d]pyrimidin-4-amine]: the values for the pIC50 in experiment [3], in experiment [4] and in experiment [2] (setting [6]) were 5.41, 7.10 and 7.89, respectively.

Take `CCOc1cc(F)c(Cn2nc(-c3nc4c(c(Nc5ccnc(NC(=O)C6CC6)c5)n3)CCC4)c3ccccc32)c(F)c1` [Example 2-12-28, N-[4-({2-[1-(4-ethoxy-2,6-difluorobenzyl)-1H-indazol-3-yl]-6,7-dihydro-5H-cyclopenta[d]pyrimidin-4-yl}amino)pyridin-2-yl]cyclopropanecarbox-amide]: the pIC50 in experiment [3] was 5.28; in experiment [4] it was 6.54; in experiment [2] (setting [6]) it was 8.03.

With `Cc1nccc(Nc2nc(-c3nn(Cc4c(F)cc(OCCO)cc4F)c4ccccc34)nc3c2CN(CC(F)(F)F)C3)n1` [Example 2-6-39, 2-{3,5-difluoro-4-[(3-{4-[(2-methylpyrimidin-4-yl)amino]-6-(2,2,2-trifluoroethyl)-6,7-dihydro-5H-pyrrolo[3,4-d]pyrimidin-2-yl}-1H-indazol-1-yl)methyl]phenoxy}ethanol], the figures for the pIC50 in experiment [3], in experiment [4] and in experiment [2] (setting [6]) were 5.15, 5.82 and 7.26, respectively.

Turning to `Cc1cnccc1Nc1nc(-c2nn(Cc3c(F)cc(OCCO)cc3F)c3ccccc23)nc2c1CCC2` [Example 2-4-8, 2-{3,5-difluoro-4-[(3-{4-[(3-methylpyridin-4-yl)amino]-6,7-dihydro-5H-cyclopenta[d]pyrimidin-2-yl}-1H-indazol-1-yl)methyl]phenoxy}ethanol], the pIC50 in experiment [3] was 5.74; in experiment [4], 6.43; in experiment [2] (setting [6]), 8.30.

As for `COc1cnccc1Nc1nc(-c2nn(Cc3c(F)cc(OCCO)cc3F)c3ccccc23)ncc1C` [Example 2-6-34, 2-{3,5-difluoro-4-[(3-{4-[(3-methoxypyridin-4-yl)amino]-5-methylpyrimidin-2-yl}-1H-indazol-1-yl)methyl]phenoxy}ethanol], the pIC50 in experiment [3] is 5.47; in experiment [4], 5.96; in experiment [2] (setting [5]), 8.29.
